Laboratory results taken from ChEMBL document CHEMBL5113486, “Hit-to-lead optimization of novel phenyl imidazole carboxamides that are active against Leishmania donovani” (Eur J Med Chem, 2022).
pIC50: −log10 of the molar value.

Columns and labels:
[1] = Selectivity index, ratio of CC50 for cytotoxicity against human THP-1 cells to IC50 for antileishmanial activity against Leishmania donovani infected in human THP-1 cells; format: toxicity, cell-based; conditions: read-out: Ratio CC50/IC50
[2] = Cytotoxicity against human THP-1 cells assessed as cell growth inhibition; format: toxicity, cell-based
Leishmania donovani = test: Antileishmanial activity against Leishmania donovani infected in human THP-1 cells assessed as growth inhibition by intramacrophage assay; format: functional, organism-based
[3] = Cytotoxicity against human HepG2 cells assessed as cell growth inhibition at 100 uM; format: toxicity, cell-based; conditions: read-out: Activity

Row | Structure (SMILES) | selectivity ratio [1] | CC50 [2] [µM] | pIC50 (Leishmania donovani) | inhibition at 100 µM [3] [%]
1 | Cn1c(-c2cccc(F)c2)cnc1NC(=O)c1ccc(F)cc1 | 4.8 | 58 | 4.92 | 
2 | COc1ccc(-c2cnc(NC(=O)c3cccnc3)n2C)cc1 | > 1 | > 100 | < 4.00 | < 50
3 | COc1ccc(-c2cnc(NC(=O)c3ccc(F)cc3)[nH]2)cc1 | > 8.3 | > 100 | 4.42 | < 50
4 | COc1ccc(-c2cnc(NC(=O)c3ccno3)n2C)cc1 | > 1 | > 100 | < 4.00 | < 50
5 | COc1cccc(-c2cnc(NC(=O)c3ccc(F)cc3)n2C)c1 | > 1 | > 100 | < 4.00 | 
6 | COc1ccc(-c2cnc(NC(=O)c3cccc([N+](=O)[O-])c3)n2C)cc1 | > 1 | > 100 | < 4.00 | 
7 | COc1ccc(-c2cnc(NC(=O)c3ccc(F)cc3)n2-c2ccccc2)cc1 | > 2.9 | 8.8 | 5.21 | 
8 | COc1ccc(-c2cnc(NC(=O)c3ccccn3)n2C)cc1 | > 7.7 | > 100 | 4.89 | 
9 | COc1ccc(-c2cnc(NC(=O)c3cccc(Cl)c3)n2C)cc1 | > 2.8 | > 28 | < 5.00 | 
10 | COc1ccc2c(c1)nc(NC(=O)c1ccc(F)cc1)n2C | > 2.6 | > 100 | 4.42 | < 50
11 | CCCn1c(-c2ccc(OC)cc2)cnc1NC(=O)c1ccc(F)cc1 | > 1 | > 100 | 4.74 | 
12 | COc1ccccc1-c1cnc(NC(=O)c2ncc[nH]2)n1C | > 1 | > 50 | < 4.30 | 
13 | Cn1c(-c2ccccc2)cnc1NC(=O)c1ccc(Br)cc1 | > 2.7 | > 100 | 4.43 | 
14 | Cn1c(-c2ccccc2)cnc1NC(=O)c1cccc(Cl)c1 | > 5.9 | > 50 | 5.07 | 
15 | COc1ccc(-c2ccnc(NC(=O)c3ccc(F)cc3)c2)cc1 | > 1 | > 100 | < 4.00 | 
16 | COc1ccc(-c2cnc(NC(=O)c3ccco3)n2C)cc1 | > 4.3 | > 100 | 4.64 | < 50
17 | Cn1c(-c2cccc(Br)c2)cnc1NC(=O)c1ccc(F)cc1 | > 9.3 | > 50 | 5.27 | 

Row | Structure (SMILES) | selectivity ratio [1] | CC50 [2] [µM] | pIC50 (Leishmania donovani) | inhibition at 100 µM [3] [%]
18 | COc1ccc(CNC(=O)NC(=O)c2ccc(F)cc2)cc1 | > 1 | > 50 | < 4.30 | 
19 | COc1ccc(-c2cnc(NC(=O)c3ccc(F)cc3)n2Cc2ccccc2)cc1 | 1.4 | > 100 | < 4.00 | < 50
20 | COc1ccc(-c2cnc(NC(=O)CCc3ccccc3)n2C)cc1 | > 4.5 | > 100 | 4.66 | 
21 | Cn1c(-c2ccccc2)cnc1NC(=O)c1ccccc1Cl | > 10 | > 50 | 5.30 | 
22 | Cn1c(-c2ccccc2)cnc1NC(=O)c1cc(-c2ccccn2)[nH]n1 | > 74 | > 50 | 6.17 | 
23 | Cn1c(-c2ccc(C#N)cc2)cnc1NC(=O)c1ccc(F)cc1 | > 1 | > 50 | < 4.30 | 
24 | CCC(=O)Nc1ncc(-c2ccc(OC)cc2)n1C | > 1 | > 100 | < 4.00 | 
25 | Cn1c(-c2ccc(Cl)cc2)cnc1NC(=O)c1ccc(F)cc1 | 7.6 | 37 | 5.31 | 
26 | Cc1ccccc1-c1cnc(NC(=O)c2ccc(F)cc2)n1C | > 13 | > 50 | 5.41 | 
27 | Cn1c(-c2ccccc2)cnc1NC(=O)c1ccc(Cl)cc1 | > 8.3 | > 100 | 4.92 | 
28 | COc1ccc(CN(C)C(=O)NC(=O)c2ccc(F)cc2)cc1 | > 1 | > 50 | < 4.30 | 
29 | C[C@@H]1[C@H](O)[C@@H](C)/C=C/C=C/C=C/C=C/C=C/C=C/C=C/[C@H](O[C@@H]2O[C@H](C)[C@@H](O)[C@H](N)[C@@H]2O)C[C@@H]2O[C@](O)(C[C@@H](O)C[C@@H](O)[C@H](O)CC[C@@H](O)C[C@@H](O)CC(=O)O[C@H]1C)C[C@H](O)[C@H]2C(=O)O [AMPHOTERICIN B] |  | 6 | 6.92 | 
30 | Cn1c(-c2ccccc2Cl)cnc1NC(=O)c1ccc(F)cc1 | > 3.3 | > 50 | 4.82 | 
31 | Cn1c(-c2ccccc2)cnc1NC(=O)c1cccc(Br)c1 | > 16 | > 50 | 5.51 | 
32 | COc1ccccc1-c1cnc(NC(=O)c2ccc(F)cc2)n1C | > 1 | > 100 | < 4.00 | 
33 | CCCCCCCCCCCCCCCCOP(=O)([O-])OCC[N+](C)(C)C [MILTEFOSINE] |  | > 20 | 6.41 | 
34 | Cn1c(-c2ccccc2[N+](=O)[O-])cnc1NC(=O)c1ccc(F)cc1 | 3.2 | 31 | 5.01 | 
